The values below come from patent publication US10647747B2, “Cyclosporin derivatives and uses thereof” (S&T Global Inc., priority 2010, dated 2020).

As a reminder, the EC50 is the midpoint of the concentration-response curve.

Data set [1] deals with rat neuronal mitochondria. In words: Mitochondrial swelling assay (inhibition of mitochondrial permeability transition, MPT). It is filed as biochemical. The settings on record: compound 100 nM added 5 minutes before Ca2+; swelling induced by 100 micromolar calcium chloride; absorbance 620nm; control 100.
Experimental: The effect of cyclosporine analogs on mitochondrial permeability transition (MPT) was determined by a modified mitochondrial swelling assay measured as an influx of Ca^2+, published by J. Blattner et al., 2001, Analytical Biochem, 295, 220-226. Briefly, rat neuronal mitochondria in an ice-cold sucrose buffer were obtained after rat whole-body perfusion and a series of centrifugation. The total protein concentration in each sample batch was determined for standardization between assays. The mitochondrial swelling was induced by 100 micromolar of Calcium Chloride. Each compound (100 nM) was added to mitochondria 5 minutes before the addition of Ca^2+. The value of absorbance at the certain wavelength (620nm) reflected the degree of mitochondrial swelling. The percentage of the swelling was calculated by comparing the absorbance in the present or absent compound of the interests.
The subject of data set [2] is HIV-1IIIB in CEM-SS cells. In words: Anti-HIV cytoprotection assay, acute infection model, MTS endpoint. The data set is classed as cell-based. The settings on record: Table 17, HIV-1IIIB in CEM-SS cells, 6-day incubation, read-out: Antiviral activity EC50. The method, then: Anti-HIV activity of cyclosporine derivatives were evaluated by cytoprotection assay in an acute infection model using CEM-SS cells and either HIV-1IIIB or HIV-1 RF. Antiviral activity was determined as a reduction in virus-caused cytopathic effects when compounds prevent virus replication. Cytoprotection and compound cytotoxicity were evaluated using the tetrazollium dye MTS (Promega) to calculate cell viability following virus infection after 6-day incubation (Zhou G., et al., 2011, J. Med. Chem. 27, 7220-31; which is incorporated herein by reference).

The subject of data set [3] is HCV replicon in cell line ET (luc-ubi-neo/ET), Huh7 human hepatoma. Description: HCV subgenomic replicon assay, luciferase end point. The data set is classed as cell-based. The settings on record: Hepatitis C virus, read-out: Antiviral activity EC50. On the technique in general: Replicon systems follow genome replication, usually without infectious particles.
The nature of data set [4]: Stability testing: epimerization of cyclosporin derivatives in methanol, monitored by HPLC. It is filed as physicochemical. The settings on record: for Epimerization %: Table 10, MeOH at 50° C.; for Epimerization % after 168 hours: Table 11, MeOH at 50° C.-58° C.
Where [5] appears, read: Human immunodeficiency virus 1, 144 h.

Like-named read-outs stand apart in the source and are kept apart here. *1 amine or outer side, *2 acyl side, *3 side chain or, on linkers, in order; H or OH if unused. Where a SMILES comes first, the peptide text is derived from it. [ ]: non-standard residue; d: D form. ξ: configuration not given here. MeBmt = C/C=C/C[C@@H](C)[C@@H](O)[C@H](NC)C(=O)O; X2 = CCN(CC)CCCS[C@H](C(=O)[*:2])N(C)[*:1]; X6 = CCN(CC)CCS[C@H](C(=O)[*:2])N(C)[*:1]; NMeIle(3ξ) = CCC(C)[C@H](NC)C(=O)O; NMeL = CN[C@@H](CC(C)C)C(=O)O; NMeV = CN[C@H](C(=O)O)C(C)C; Abu = CC[C@H](N)C(=O)O

Turning to `C/C=C/C[C@@H](C)[C@@H](O)[C@H]1C(=O)N[C@@H](CC)C(=O)N(C)[C@H](CSCCN(CC)CC)C(=O)N(C)[C@@H](CC(C)(C)O)C(=O)N[C@@H](C(C)C)C(=O)N(C)[C@@H](CC(C)C)C(=O)N[C@@H](C)C(=O)N[C@H](C)C(=O)N(C)[C@@H](CC(C)C)C(=O)N(C)[C@@H](CC(C)C)C(=O)N(C)[C@@H](C(C)C)C(=O)N1C` [listing 1 of 2 here], the “Mitochondrial Swelling Relative %” value in data set [1] is 55.7%.
On to `Cc1cn([C@H]2C[C@H](N=[N+]=[N-])[C@@H](CO)O2)c(=O)[nH]c1=O` [AZT], for which the EC50 in data set [2] was 9 nM.
With `C/C=C/C[C@@H](C)[C@@H](O)[C@H]1C(=O)N[C@@H](CC)C(=O)N(C)[C@H](CSCCN2CCOCC2)C(=O)N(C)[C@@H](CC(C)(C)O)C(=O)N[C@@H](C(C)C)C(=O)N(C)[C@@H](CC(C)C)C(=O)N[C@@H](C)C(=O)N[C@H](C)C(=O)N(C)[C@@H](CC(C)C)C(=O)N(C)[C@@H](CC(C)C)C(=O)N(C)[C@@H](C(C)C)C(=O)N1C` [[(S)-(2-(N-Morpholino)ethylthio)methyl-Sar]-3-[(γ-hydroxy)-N-MeLeu]-4-cyclosporin], the concentration for a half-maximal effect (EC50) in data set [3] (Huh-7, HCV subgenomic replicon, cell line ET (luc-ubi-neo/ET) Huh7, luciferase end point) is 60 nM; in data set [3] (Huh-7, Table 14, HCV replicon luciferase), 20 nM; in data set [2] (setting [5]), 94.9 nM.
Regarding `C/C=C/C[C@@H](C)[C@@H](O)[C@H]1C(=O)N[C@@H](CC)C(=O)N(C)[C@H](SCCCN2CCOCC2)C(=O)N(C)[C@@H](CC(C)(C)O)C(=O)N[C@@H](C(C)C)C(=O)N(C)[C@@H](CC(C)C)C(=O)N[C@@H](C)C(=O)N[C@H](C)C(=O)N(C)[C@@H](CC(C)C)C(=O)N(C)[C@@H](CC(C)C)C(=O)N(C)[C@@H](C(C)C)C(=O)N1C` [drawing 1931], the “Epimerization % in MeOH at 65° C.” value in data set [4] (Table 8, 2 hours) is recorded as 0%; in data set [4] (Table 8, 4 hours) it was 0%; in data set [4] (Table 8, 6 hours), 0%; in data set [4] (Table 8, 8 hours) it was “Less than 1%”; in data set [4] (Table 8, 10 hours) it was about 10%.
Regarding `C/C=C/C[C@@H](C)[C@@H](O)[C@H]1C(=O)N[C@@H](CC)C(=O)N(C)[C@H](SCCN(CC)CC)C(=O)N(C)[C@@H](C(C)CC)C(=O)N[C@@H](C(C)C)C(=O)N(C)[C@@H](CC(C)C)C(=O)N[C@@H](C)C(=O)N[C@H](C)C(=O)N(C)[C@@H](CC(C)C)C(=O)N(C)[C@@H](CC(C)C)C(=O)N(C)[C@@H](C(C)C)C(=O)N1C` (stereo partly drawn) (cyclo(A[dA][NMeL][NMeL][NMeV][MeBmt][Abu][X6][NMeIle(3ξ)]V[NMeL])), the results for the Epimerization % in data set [4] (29 hours), in data set [4] (77 hours) and in data set [4] (125 hours) were about 4%, about 10% and about 16%, respectively.
In the case of `C/C=C/C[C@@H](C)[C@@H](O)[C@H]1C(=O)N[C@@H](CC)C(=O)N(C)[C@H](COCCN(CC)CC)C(=O)N(C)[C@@H](CC(C)(C)O)C(=O)N[C@@H](C(C)C)C(=O)N(C)[C@@H](CC(C)C)C(=O)N[C@@H](C)C(=O)N[C@H](C)C(=O)N(C)[C@@H](CC(C)C)C(=O)N(C)[C@@H](CC(C)C)C(=O)N(C)[C@@H](C(C)C)C(=O)N1C`, in data set [4], the “Epimerization % after 168 hours” value is given as 0%.
Regarding `C/C=C/C[C@@H](C)[C@@H](O)[C@H]1C(=O)N[C@@H](CC)C(=O)N(C)[C@H](SCCCN(CC)CC)C(=O)N(C)[C@@H](C(C)CC)C(=O)N[C@@H](C(C)C)C(=O)N(C)[C@@H](CC(C)C)C(=O)N[C@@H](C)C(=O)N[C@H](C)C(=O)N(C)[C@@H](CC(C)C)C(=O)N(C)[C@@H](CC(C)C)C(=O)N(C)[C@@H](C(C)C)C(=O)N1C` (stereo partly drawn) (cyclo(A[dA][NMeL][NMeL][NMeV][MeBmt][Abu][X2][NMeIle(3ξ)]V[NMeL])), the Epimerization % in data set [4] (29 hours), in data set [4] (77 hours) and in data set [4] (125 hours) was 0% in each case.
In the case of `C/C=C/C[C@@H](C)[C@@H](O)[C@H]1C(=O)N[C@@H](CC)C(=O)N(C)[C@H](CSCCN(C)C)C(=O)N(C)[C@@H](CC(C)(C)O)C(=O)N[C@@H](C(C)C)C(=O)N(C)[C@@H](CC(C)C)C(=O)N[C@@H](C)C(=O)N[C@H](C)C(=O)N(C)[C@@H](CC(C)C)C(=O)N(C)[C@@H](CC(C)C)C(=O)N(C)[C@@H](C(C)C)C(=O)N1C`, in data set [4], the “Epimerization % after 168 hours” value is 0%.
Still for that read-out and setting: then `C/C=C/C[C@@H](C)[C@@H](O)[C@H]1C(=O)N[C@@H](CC)C(=O)N(C)[C@H](CSCCN(CC)CC)C(=O)N(C)[C@@H](CC(C)C)C(=O)N[C@@H](C(C)C)C(=O)N(C)[C@@H](CC(C)C)C(=O)N[C@@H](C)C(=O)N[C@H](C)C(=O)N(C)[C@@H](CC(C)C)C(=O)N(C)[C@@H](CC(C)C)C(=O)N(C)[C@@H](C(C)C)C(=O)N1C` (single isomer, unassigned), with 0%; and `C/C=C/C[C@@H](C)[C@@H](O)[C@H]1C(=O)N[C@@H](CC)C(=O)N(C)[C@H](CSCCCN2CCCCC2)C(=O)N(C)[C@@H](CC(C)(C)O)C(=O)N[C@@H](C(C)C)C(=O)N(C)[C@@H](CC(C)C)C(=O)N[C@@H](C)C(=O)N[C@H](C)C(=O)N(C)[C@@H](CC(C)C)C(=O)N(C)[C@@H](CC(C)C)C(=O)N(C)[C@@H](C(C)C)C(=O)N1C`, with 0%.
As to `C/C=C/C[C@@H](C)[C@@H](O)[C@H]1C(=O)N[C@@H](CC)C(=O)N(C)[C@H](SCCCN2CCOCC2)C(=O)N(C)[C@@H](CC(C)(C)O)C(=O)N[C@@H](C(C)C)C(=O)N(C)[C@@H](CC(C)C)C(=O)N[C@@H](C)C(=O)N[C@H](C)C(=O)N(C)[C@@H](CC(C)C)C(=O)N(C)[C@@H](CC(C)C)C(=O)N(C)[C@@H](C(C)C)C(=O)N1C` [drawing 1936], the Epimerization % in data set [4] (29 hours), in data set [4] (77 hours) and in data set [4] (125 hours) was 0% each time.
Regarding `C/C=C/C[C@@H](C)[C@@H](O)[C@H]1C(=O)N[C@@H](CC)C(=O)N(C)[C@H](COCCN(C)C)C(=O)N(C)[C@@H](CC(C)C)C(=O)N[C@@H](C(C)C)C(=O)N(C)[C@@H](CC(C)C)C(=O)N[C@@H](C)C(=O)N[C@H](C)C(=O)N(C)[C@@H](CC(C)C)C(=O)N(C)[C@@H](CC(C)C)C(=O)N(C)[C@@H](C(C)C)C(=O)N1C`, the “Epimerization % after 168 hours” value in data set [4] worked out at 0%.
Regarding `C/C=C/C[C@@H](C)[C@@H](O)[C@H]1C(=O)N[C@@H](CC)C(=O)N(C)[C@H](CSCCN(C)C)C(=O)N(C)[C@@H](CC(C)(C)O)C(=O)N[C@@H](C(C)C)C(=O)N(C)[C@@H](CC(C)C)C(=O)N[C@@H](C)C(=O)N[C@H](C)C(=O)N(C)[C@@H](CC(C)C)C(=O)N(C)[C@@H](CC(C)C)C(=O)N(C)[C@@H](C(C)C)C(=O)N1C` (single isomer, unassigned), the 50% effective concentration (EC50) in data set [2] (setting [5]) was 118 nM.
As for `C/C=C/C[C@@H](C)[C@@H](O)[C@H]1C(=O)N[C@@H](CC)C(=O)N(C)[C@H](CSCCN(CC)CC)C(=O)N(C)[C@@H](CC(C)(C)O)C(=O)N[C@@H](C(C)C)C(=O)N(C)[C@@H](CC(C)C)C(=O)N[C@@H](C)C(=O)N[C@H](C)C(=O)N(C)[C@@H](CC(C)C)C(=O)N(C)[C@@H](CC(C)C)C(=O)N(C)[C@@H](C(C)C)C(=O)N1C` [listing 2 of 2 here], the “Epimerization % after 168 hours” value in data set [4] amounted to 0%.
For the compound `C/C=C/C[C@@H](C)[C@@H](O)[C@H]1C(=O)N[C@@H](CC)C(=O)N(C)[C@H](SCCCN2CCOCC2)C(=O)N(C)[C@@H](CC(C)(C)OC)C(=O)N[C@@H](C(C)C)C(=O)N(C)[C@@H](CC(C)C)C(=O)N[C@@H](C)C(=O)N[C@H](C)C(=O)N(C)[C@@H](CC(C)C)C(=O)N(C)[C@@H](CC(C)C)C(=O)N(C)[C@@H](C(C)C)C(=O)N1C` [drawing 1932], the “Epimerization % in MeOH at 65° C.” value in data set [4] (Table 9, 2 hours) was determined as 0%; in data set [4] (Table 9, 4 hours), 0%; in data set [4] (Table 9, 10 hours), 0%; in data set [4] (Table 9, 22 hours), 0%; in data set [4] (Table 9, 30 hours), 0%; in data set [4] (Table 9, 38 hours), 0%.
`C/C=C/C[C@@H](C)[C@@H](O)[C@H]1C(=O)N[C@@H](CC)C(=O)N(C)[C@H](SCCCN(CC)CC)C(=O)N(C)[C@@H](C(C)C)C(=O)N[C@@H](C(C)C)C(=O)N(C)[C@@H](CC(C)C)C(=O)N[C@@H](C)C(=O)N[C@H](C)C(=O)N(C)[C@@H](CC(C)C)C(=O)N(C)[C@@H](CC(C)C)C(=O)N(C)[C@@H](C(C)C)C(=O)N1C` (cyclo(A[dA][NMeL][NMeL][NMeV][MeBmt][Abu][X2][NMeV]V[NMeL])): the Epimerization % in data set [4] (29 hours), in data set [4] (77 hours) and in data set [4] (125 hours) was 0% throughout.
Take `C/C=C/C[C@@H](C)[C@@H](O)[C@H]1C(=O)N[C@@H](CC)C(=O)N(C)[C@H](COCCN(CC)CC)C(=O)N(C)[C@@H](CC(C)C)C(=O)N[C@@H](C(C)C)C(=O)N(C)[C@@H](CC(C)C)C(=O)N[C@@H](C)C(=O)N[C@H](C)C(=O)N(C)[C@@H](CC(C)C)C(=O)N(C)[C@@H](CC(C)C)C(=O)N(C)[C@@H](C(C)C)C(=O)N1C`: the “Epimerization % after 168 hours” value in data set [4] was 0%.
